Results from BigSolDB 2.1.

O=[N+]([O-])c1c(Cl)cc(Cl)c([N+](=O)[O-])c1Cl
solubility (mole fraction)
Details | 278.15 K | 283.15 K | 288.15 K | 293.15 K | 298.15 K | 303.15 K | 308.15 K | 311.15 K | 313.15 K | 318.15 K
in 1,2-dichloroethane | 0.0536 | 0.0636 | 0.0732 | 0.0837 | 0.0961 | 0.108 | 0.123 | – | 0.144 | 0.168
in acetone | 0.0844 | 0.0944 | 0.106 | 0.117 | 0.13 | 0.145 | 0.162 | – | 0.18 | 0.2
in acetonitrile | 0.0224 | 0.0267 | 0.0313 | 0.0373 | 0.0447 | 0.0531 | 0.0635 | – | 0.0769 | 0.0928
in chloroform | 0.0715 | 0.0892 | 0.0997 | 0.11 | 0.121 | 0.129 | 0.141 | – | 0.165 | 0.197
in dichloromethane | 0.0668 | 0.0758 | 0.0869 | 0.0981 | 0.11 | 0.125 | 0.141 | 0.147 | – | –
in ethanol | 0.00389 | 0.00461 | 0.00539 | 0.0062 | 0.00712 | 0.00831 | 0.00969 | – | 0.0113 | 0.0132
in ethyl acetate | 0.0768 | 0.0849 | 0.0947 | 0.105 | 0.116 | 0.13 | 0.145 | – | 0.16 | 0.177
in methanol | 0.0034 | 0.00426 | 0.00698 | 0.0221 | 0.0422 | 0.0562 | 0.0718 | – | 0.0849 | 0.0909
in methyl acetate | 0.074 | 0.0832 | 0.0943 | 0.109 | 0.124 | 0.14 | 0.156 | – | 0.173 | 0.19
in n-butanol | 0.00475 | 0.00566 | 0.00668 | 0.00776 | 0.00906 | 0.0108 | 0.013 | – | 0.0157 | 0.0189
in n-propanol | 0.00412 | 0.0049 | 0.00565 | 0.00668 | 0.00793 | 0.00921 | 0.0109 | – | 0.0132 | 0.0158
in tetrachloromethane | 0.0155 | 0.0185 | 0.0224 | 0.0277 | 0.0341 | 0.0411 | 0.0492 | – | 0.0589 | 0.0695
